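The compound was tested at five concentrations on cells cultured in 96-well plates, with a 48-hour exposure period. GI50 marks 50% less growth.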 Activity calls are given as the source filed them. No stated cut-off is given here; in the data, active = GI50 up to about 1.1 µM and inactive = higher.
Columns and labels:
Assay in all cases: NCI anticancer screen, dose series, 48 h
NCI-H226 = tested on: NCI-H226
M19-MEL = tested on: M19-MEL
KM12 = tested on: KM12
TK-10 = tested on: TK-10
RPMI-8226 = tested on: RPMI-8226
SF-268 = tested on: SF-268
UO-31 = tested on: UO-31
IGROV-1 = tested on: IGROV-1
A498 = tested on: A498
MOLT-4 = tested on: MOLT-4
SF-539 = tested on: SF-539
SK-MEL-5 = tested on: SK-MEL-5
SF-295 = tested on: SF-295
CCRF-CEM = tested on: CCRF-CEM
MDA-N = tested on: MDA-N
MDA-MB-435 = tested on: MDA-MB-435
NCI/ADR-RES = tested on: NCI/ADR-RES
PC-3 = tested on: PC-3
T47D = tested on: T47D
Hs-578T = tested on: Hs-578T

Q: For Nc1ccn([C@@H]2C[C@H](CO)[C@@H](O)[C@H]2O)c(=O)n1, which GI50 (NCI-H226) is on record?
A: > 57.7 µM (inactive)

Q: And the GI50 (M19-MEL)?
A: > 57.7 µM (inactive)

Q: And the GI50 (KM12)?
A: > 57.7 µM (inactive)

Q: What about the GI50 (TK-10) of the same compound?
A: > 57.7 µM (inactive)

Q: What about the GI50 (RPMI-8226) of the same compound?
A: > 57.7 µM (inactive)

Q: And the GI50 (SF-268)?
A: > 57.7 µM (inactive)

Q: And the GI50 (UO-31)?
A: > 57.7 µM (inactive)

Q: And the GI50 (IGROV-1)?
A: > 57.7 µM (inactive)

Q: What about the GI50 (A498) of the same compound?
A: > 57.7 µM (inactive)

Q: And the GI50 (MOLT-4)?
A: > 57.7 µM (inactive)

Q: And the GI50 (SF-539)?
A: > 57.7 µM (inactive)

Q: What about the GI50 (SK-MEL-5) of the same compound?
A: > 57.7 µM (inactive)

Q: Which results are given for COc1ccc2c(c1)CCc1c-2nc2cc3c(cc2c1O)OCO3?
A: GI50 (NCI-H226): > 100 µM (inactive); GI50 (M19-MEL): > 100 µM (inactive); GI50 (KM12): > 100 µM (inactive); GI50 (TK-10): > 100 µM (inactive); GI50 (SF-295): > 100 µM (inactive); GI50 (RPMI-8226): > 100 µM (inactive); GI50 (CCRF-CEM): > 100 µM (inactive); GI50 (SF-268): > 100 µM (inactive); GI50 (UO-31): > 100 µM (inactive); GI50 (IGROV-1): > 100 µM (inactive); GI50 (MOLT-4): > 100 µM (inactive); GI50 (SF-539): > 100 µM (inactive); GI50 (SK-MEL-5): > 100 µM (inactive)

Q: With Cc1cccc2c1N(C(=O)/C=C\C(=O)O)C(c1c(C)[nH]c3ccccc13)C2 (stereo not given) as the compound, how does the GI50 (NCI-H226) read?
A: 49.3 µM (inactive)

Q: What about the GI50 (M19-MEL) of the same compound?
A: 22.7 µM (inactive)

Q: What about the GI50 (KM12) of the same compound?
A: 33.5 µM (inactive)

Q: What about the GI50 (TK-10) of the same compound?
A: 73.5 µM (inactive)

Q: And the GI50 (SF-295)?
A: 44.8 µM (inactive)

Q: And the GI50 (RPMI-8226)?
A: 28.4 µM (inactive)

Q: What about the GI50 (CCRF-CEM) of the same compound?
A: 34.8 µM (inactive)

Q: And the GI50 (SF-268)?
A: > 10 µM (inactive)

Q: And the GI50 (UO-31)?
A: > 100 µM (inactive)

Q: And the GI50 (IGROV-1)?
A: > 10 µM (inactive)

Q: And the GI50 (A498)?
A: > 100 µM (inactive)

Q: What about the GI50 (MOLT-4) of the same compound?
A: 31.2 µM (inactive)

Q: And the GI50 (SK-MEL-5)?
A: 18.2 µM (inactive)

Q: With COc1cc(Nc2cnc3ccc(C(F)(F)F)cc3n2)cc(OC)c1OC as the compound, how does the GI50 (NCI-H226) read?
A: > 100 µM (inactive)

Q: And the GI50 (M19-MEL)?
A: 13.6 µM (inactive)

Q: And the GI50 (TK-10)?
A: 38.1 µM (inactive)

Q: What about the GI50 (SF-295) of the same compound?
A: 5.53 µM (inactive)

Q: What about the GI50 (RPMI-8226) of the same compound?
A: 15.3 µM (inactive)

Q: And the GI50 (CCRF-CEM)?
A: 24.7 µM (inactive)

Q: What about the GI50 (SF-268) of the same compound?
A: 84.5 µM (inactive)

Q: And the GI50 (UO-31)?
A: 67.1 µM (inactive)

Q: What about the GI50 (MOLT-4) of the same compound?
A: 39.7 µM (inactive)

Q: And the GI50 (SF-539)?
A: 32.1 µM (inactive)

Q: How did the GI50 (NCI-H226) turn out when CNS(=O)(=O)NNS(=O)(=O)c1ccc(Br)cc1 was run?
A: > 100 µM (inactive)

Q: What about the GI50 (M19-MEL) of the same compound?
A: > 100 µM (inactive)

Q: And the GI50 (TK-10)?
A: > 100 µM (inactive)

Q: What about the GI50 (RPMI-8226) of the same compound?
A: > 100 µM (inactive)

Q: And the GI50 (CCRF-CEM)?
A: > 100 µM (inactive)

Q: What about the GI50 (SF-268) of the same compound?
A: > 100 µM (inactive)

Q: And the GI50 (UO-31)?
A: 20.6 µM (inactive)

Q: And the GI50 (IGROV-1)?
A: > 100 µM (inactive)

Q: What about the GI50 (A498) of the same compound?
A: > 100 µM (inactive)

Q: And the GI50 (SF-539)?
A: > 100 µM (inactive)

Q: And the GI50 (SK-MEL-5)?
A: > 100 µM (inactive)

Q: Which GI50 (NCI-H226) does the source give for COc1ccc(OC)c2[s+]snc12 here?
A: > 100 µM (inactive)

Q: And the GI50 (M19-MEL)?
A: 15.8 µM (inactive)

Q: What about the GI50 (KM12) of the same compound?
A: 38.6 µM (inactive)

Q: What about the GI50 (TK-10) of the same compound?
A: > 100 µM (inactive)

Q: And the GI50 (SF-295)?
A: 55.7 µM (inactive)

Q: And the GI50 (CCRF-CEM)?
A: 36.1 µM (inactive)

Q: And the GI50 (SF-268)?
A: 52.6 µM (inactive)

Q: What about the GI50 (UO-31) of the same compound?
A: 29 µM (inactive)

Q: And the GI50 (IGROV-1)?
A: > 100 µM (inactive)

Q: What about the GI50 (A498) of the same compound?
A: > 100 µM (inactive)

Q: What about the GI50 (MOLT-4) of the same compound?
A: 70.8 µM (inactive)

Q: And the GI50 (SF-539)?
A: 21.4 µM (inactive)

Q: What about the GI50 (SK-MEL-5) of the same compound?
A: 19 µM (inactive)

Q: Which results are given for NC1CCC(c2cc3ccccc3s2)(N2CCCCC2)CC1 (stereo not given)?
A: GI50 (NCI-H226): 24.1 µM (inactive); GI50 (MDA-N): 1.74 µM (inactive); GI50 (MDA-MB-435): 1.35 µM (inactive); GI50 (NCI/ADR-RES): 1.19 µM (inactive); GI50 (KM12): 1.73 µM (inactive); GI50 (TK-10): 5.78 µM (inactive); GI50 (PC-3): 1.55 µM (inactive); GI50 (SF-295): 2.64 µM (inactive); GI50 (RPMI-8226): 0.817 µM (active); GI50 (T47D): 2.09 µM (inactive); GI50 (CCRF-CEM): 1.01 µM (active); GI50 (SF-268): 3.57 µM (inactive); GI50 (UO-31): 2.31 µM (inactive); GI50 (IGROV-1): 1.66 µM (inactive); GI50 (A498): 9.29 µM (inactive); GI50 (Hs-578T): 4.11 µM (inactive); GI50 (MOLT-4): 1.32 µM (inactive); GI50 (SF-539): 2.06 µM (inactive); GI50 (SK-MEL-5): 2.08 µM (inactive)

Q: What does the source list for N=C1C(=N)c2ccccc2-c2ccccc21?
A: GI50 (NCI-H226): 1.82 µM (inactive); GI50 (MDA-N): 0.177 µM (active); GI50 (MDA-MB-435): 0.199 µM (active); GI50 (NCI/ADR-RES): 0.492 µM (active); GI50 (KM12): 1.85 µM (inactive); GI50 (TK-10): 1.65 µM (inactive); GI50 (PC-3): 1.52 µM (inactive); GI50 (SF-295): 1.62 µM (inactive); GI50 (RPMI-8226): 0.959 µM (active); GI50 (T47D): 0.419 µM (active); GI50 (CCRF-CEM): 0.376 µM (active); GI50 (SF-268): 2.1 µM (inactive); GI50 (UO-31): 1.61 µM (inactive); GI50 (IGROV-1): 2 µM (inactive); GI50 (A498): 2.24 µM (inactive); GI50 (Hs-578T): 2.64 µM (inactive); GI50 (MOLT-4): 0.337 µM (active); GI50 (SF-539): 0.787 µM (active); GI50 (SK-MEL-5): 0.308 µM (active)
